Reference: patent US8178522B2, “Thiazoles” (Hoffmann-La Roche Inc., priority 2009, dated 2012)
pKi: −log10 of the molar value.

These compounds were tested against T1, GABA A α5 (α5β3γ2) (Homo sapiens, UniProt P18507+P31644) (assay: [3H]flumazenil competition binding, human GABA A α5 receptor). Conditions: not given.
T1 construct: expressed in transfected cells; host or cells: HEK293, transiently transfected; membrane preparation
Summary of the method: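 Competition with [3H]flumazenil at membranes from HEK293 cells transiently expressing human α5β3γ2, in Krebs-tris buffer pH 7.5. Equilibrium 1 hour at 4° C, filtration with ice-cold 50 mM Tris wash, scintillation counting. Ki values are means of two determinations.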
Work on `Cc1onc(-c2ccc(F)cn2)c1/C=C/c1ncc(C(=O)NCC(F)(F)F)s1` [Example 84, 2-{(E)-2-[3-(5-Fluoro-pyridin-2-yl)-5-methyl-isoxazol-4-yl]-vinyl}-thiazole-5-carboxylic acid (2,2,2-trifluoro-ethyl)-amide] yielded a pKi of 8.39.

Same assay, conditions: human receptor α5β3γ2 transiently transfected in HEK293 cells; competition for [3H]flumazenil 0.5 nM; 1 hour at 4° C.; means of two determinations; read-out: hKi GABA A α5
`CCCCc1noc(C)c1/C=C/c1nc(C)c(C(=O)N[C@H](CC)CO)s1` [Example 105, 2-[(E)-2-(3-Butyl-5-methyl-isoxazol-4-yl)-vinyl]-4-methyl-thiazole-5-carboxylic acid ((R)-1-hydroxymethyl-propyl)-amide] was tested, and the pKi was 8.10.
For `CCCCc1noc(C)c1CCc1nc(C)c(C(=O)NCC(C)O)s1` (stereo not drawn) [Example 56, 2-[2-(3-Butyl-5-methyl-isoxazol-4-yl)-ethyl]-4-methyl-thiazole-5-carboxylic acid (2-hydroxy-propyl)-amide], the pKi was 7.77.
`CCCCc1noc(C)c1CCc1nc(C)c(C(=O)NC2CCOC2)s1` (racemic) [Example 52, Rac-2-[2-(3-Butyl-5-methyl-isoxazol-4-yl)-ethyl]-4-methyl-thiazole-5-carboxylic acid (tetrahydro-furan-3-yl)-amide] gave a pKi of 7.82.
For `Cc1nc(CCc2c(-c3ccccn3)noc2C)sc1C(=O)NC1CCOCC1` [Example 9, 4-Methyl-2-[2-(5-methyl-3-pyridin-2-yl-isoxazol-4-yl)-ethyl]-thiazole-5-carboxylic acid (tetrahydro-pyran-4-yl)-amide], the pKi was 8.24.
`CCCCc1noc(C)c1/C=C/c1nc(C)c(C(=O)NC2CCC2)s1` [Example 115, 2-[(E)-2-(3-Butyl-5-methyl-isoxazol-4-yl)-vinyl]-4-methyl-thiazole-5-carboxylic acid cyclobutylamide] was tested, and the pKi was 8.33.
For `Cc1nc(CCc2c(-c3ccc(F)cn3)noc2C)sc1C(=O)N1CCSCC1` [Example 37, (2-{2-[3-(5-Fluoro-pyridin-2-yl)-5-methyl-isoxazol-4-yl]-ethyl}-4-methyl-thiazol-5-yl)-thiomorpholin-4-yl-methanone], the pKi was 7.25.
For `CCCCc1noc(C)c1/C=C/c1ncc(C(=O)NCCO)s1` [Example 125, 2-[(E)-2-(3-Butyl-5-methyl-isoxazol-4-yl)-vinyl]-thiazole-5-carboxylic acid (2-hydroxy-ethyl)-amide], the pKi was 8.18.
`CCNC(=O)c1sc(CCc2c(-c3ccccn3)noc2C)nc1C` [Example 15, 4-Methyl-2-[2-(5-methyl-3-pyridin-2-yl-isoxazol-4-yl)-ethyl]-thiazole-5-carboxylic acid ethylamide] showed a pKi of 7.92.
`CCCCc1noc(C)c1/C=C/c1nc(C)c(C(=O)N2CCC2)s1` [Example 110, Azetidin-1-yl-{2-[(E)-2-(3-butyl-5-methyl-isoxazol-4-yl)-vinyl]-4-methyl-thiazol-5-yl}-methanone] showed a pKi of 7.51.
`Cc1onc(-c2ccccc2)c1CNc1ncc(C(=O)NC(C)C)s1` [Example 135, 2-[(5-Methyl-3-phenyl-isoxazol-4-ylmethyl)-amino]-thiazole-5-carboxylic acid isoprop-ylamide] gave a pKi of 8.05.
`CCCCc1noc(C)c1/C=C/c1nc(C)c(C(=O)NC2CCS(=O)(=O)C2)s1` (stereo not drawn) [Example 118, 2-[(E)-2-(3-Butyl-5-methyl-isoxazol-4-yl)-vinyl]-4-methyl-thiazole-5-carboxylic acid (1,1-dioxo-tetrahydrothiophen-3-yl)-amide] gave a pKi of 8.60.
With `CCCCc1noc(C)c1CCc1ncc(C(=O)NC2CCOC2)s1` (stereo not drawn) [Example 60, 2-[2-(3-Butyl-5-methyl-isoxazol-4-yl)-ethyl]-thiazole-5-carboxylic acid (tetrahydro-furan-3-yl)-amide] the pKi was 7.45.
`CCCCc1noc(C)c1COc1ncc(C(=O)NC(C)CO)s1` (racemic) [Example 133, Rac-2-(3-Butyl-5-methyl-isoxazol-4-ylmethoxy)-thiazole-5-carboxylic acid (2-hydroxy-1-methyl-ethyl)-amide] was tested, and the pKi was 7.72.
`Cc1onc(-c2ccc(F)cn2)c1/C=C/c1ncc(C(=O)NCCO)s1` [Example 85, 2-{(E)-2-[3-(5-Fluoro-pyridin-2-yl)-5-methyl-isoxazol-4-yl]-vinyl}-thiazole-5-carboxylic acid (2-hydroxy-ethyl)-amide] gave a pKi of 8.29.
Work on `Cc1onc(-c2ccccn2)c1CCc1ncc(C(=O)NCC(F)(F)F)s1` [Example 28, 2-[2-(5-Methyl-3-pyridin-2-yl-isoxazol-4-yl)-ethyl]-thiazole-5-carboxylic acid (2,2,2-trifluoro-ethyl)-amide] yielded a pKi of 7.75.
With `CCCCc1noc(C)c1CCc1ncc(C(=O)NCC(C)O)s1` (stereo not drawn) [Example 62, 2-[2-(3-Butyl-5-methyl-isoxazol-4-yl)-ethyl]-thiazole-5-carboxylic acid (2-hydroxy-propyl)-amide] the pKi was 7.35.
`CCCCc1noc(C)c1/C=C/c1nc(C)c(C(=O)NC(CC)CO)s1` (racemic) [Example 104, Rac-2-[(E)-2-(3-Butyl-5-methyl-isoxazol-4-yl)-vinyl]-4-methyl-thiazole-5-carboxylic acid (1-hydroxymethyl-propyl)-amide] was tested, and the pKi was 8.51.
For `Cc1nc(/C=C/c2c(-c3ccccc3)noc2C)sc1C(=O)NCCO` [Example 70, 4-Methyl-2-[(E)-2-(5-methyl-3-phenyl-isoxazol-4-yl)-vinyl]-thiazole-5-carboxylic acid (2-hydroxy-ethyl)-amide], the pKi was 9.30.
`COC(=O)c1cnc(CCc2c(-c3ccccn3)noc2C)s1` [Example 21, 2-[2-(5-Methyl-3-pyridin-2-yl-isoxazol-4-yl)-ethyl]-thiazole-5-carboxylic acid methyl ester] gave a pKi of 7.40.
Compound `CCCCc1noc(C)c1/C=C/c1nc(C)c(C(=O)N2CC(F)(F)C2)s1` [Example 108, {2-[(E)-2-(3-Butyl-5-methyl-isoxazol-4-yl)-vinyl]-4-methyl-thiazol-5-yl}-(3,3-difluoro-azetidin-1-yl)-methanone] has a pKi of 7.61.
`CCCCc1noc(C)c1/C=C/c1nc(C)c(C(=O)NC2CCOCC2)s1` [Example 96, 2-[(E)-2-(3-Butyl-5-methyl-isoxazol-4-yl)-vinyl]-4-methyl-thiazole-5-carboxylic acid (tetrahydro-pyran-4-yl)-amide] was tested, and the pKi was 8.82.
Compound `Cc1onc(-c2ccc(F)cn2)c1/C=C/c1ncc(C(N)=O)s1` [Example 81, 2-{(E)-2-[3-(5-Fluoro-pyridin-2-yl)-5-methyl-isoxazol-4-yl]-vinyl}-thiazole-5-carboxylic acid amide] has a pKi of 8.26.
With `Cc1onc(-c2ccccn2)c1CCc1ncc(C(=O)NCC2CC2)s1` [Example 26, 2-[2-(5-Methyl-3-pyridin-2-yl-isoxazol-4-yl)-ethyl]-thiazole-5-carboxylic acid cyclo-propylmethyl-amide] the pKi was 7.46.
With `Cc1onc(-c2ccc(F)cn2)c1/C=C/c1ncc(C(=O)N2CCSCC2)s1` [Example 89, (2-{(E)-2-[3-(5-Fluoro-pyridin-2-yl)-5-methyl-isoxazol-4-yl]-vinyl}-thiazol-5-yl)-thiomorpholin-4-yl-methanone] the pKi was 7.64.
With `CCCCc1noc(C)c1CCc1nc(C)c(C(=O)N[C@H](C)CO)s1` [Example 55, 2-[2-(3-Butyl-5-methyl-isoxazol-4-yl)-ethyl]-4-methyl-thiazole-5-carboxylic acid ((R)-2-hydroxy-1-methyl-ethyl)-amide] the pKi was 7.45.
Compound `Cc1nc(CCc2c(-c3ccccc3)noc2C)sc1C(=O)NC(C)CO` (racemic) [Example 3, Rac-4-Methyl-2-[2-(5-methyl-3-phenyl-isoxazol-4-yl)-ethyl]-thiazole-5-carboxylic acid (2-hydroxy-1-methyl-ethyl)-amide] has a pKi of 8.10.
Work on `Cc1onc(-c2ccccc2)c1/C=C/c1ncc(C(=O)NCCO)s1` [Example 67, 2-[(E)-2-(5-Methyl-3-phenyl-isoxazol-4-yl)-vinyl]-thiazole-5-carboxylic acid (2-hydroxy-ethyl)-amide] yielded a pKi of 8.55.
Work on `Cc1nc(CCc2c(-c3ccccn3)noc2C)sc1C(=O)NC1CC1` [Example 11, 4-Methyl-2-[2-(5-methyl-3-pyridin-2-yl-isoxazol-4-yl)-ethyl]-thiazole-5-carboxylic acid cyclopropylamide] yielded a pKi of 8.11.
For `Cc1nc(CCc2c(-c3ccccc3)noc2C)sc1C(=O)NC(C)C` [Example 1, 4-Methyl-2-[2-(5-methyl-3-phenyl-isoxazol-4-yl)-ethyl]-thiazole-5-carboxylic acid iso-propylamide], the pKi was 8.24.
In the case of `Cc1nc(/C=C/c2c(-c3ccccc3)noc2C)sc1C(=O)NC(C)C` [Example 68, 4-Methyl-2-[(E)-2-(5-methyl-3-phenyl-isoxazol-4-yl)-vinyl]-thiazole-5-carboxylic acid isopropylamide], the pKi was 9.40.
`Cc1onc(-c2ccccc2)c1/C=C/c1ncc(C(=O)NC(C)C)s1` [Example 65, 2-[(E)-2-(5-Methyl-3-phenyl-isoxazol-4-yl)-vinyl]-thiazole-5-carboxylic acid isoprop-ylamide] gave a pKi of 8.89.
With `CCCCc1noc(C)c1/C=C/c1nc(C)c(C(=O)N[C@@H](CC)CO)s1` [Example 106, 2-[(E)-2-(3-Butyl-5-methyl-isoxazol-4-yl)-vinyl]-4-methyl-thiazole-5-carboxylic acid ((S)-1-hydroxymethyl-propyl)-amide] the pKi was 8.68.
For `CCCCc1noc(C)c1/C=C/c1nc(C)c(C(=O)NN(C)C)s1` [Example 102, 2-[(E)-2-(3-Butyl-5-methyl-isoxazol-4-yl)-vinyl]-4-methyl-thiazole-5-carboxylic acid N′,N′-dimethyl-hydrazide], the pKi was 8.36.
For `CCCCc1noc(C)c1/C=C/c1nc(C)c(C(=O)N2CC(OC)C2)s1` [Example 109, {2-[(E)-2-(3-Butyl-5-methyl-isoxazol-4-yl)-vinyl]-4-methyl-thiazol-5-yl}-(3-methoxy-azetidin-1-yl)-methanone], the pKi was 7.48.
`CCCCc1noc(C)c1/C=C/c1nc(C)c(C(=O)NN2CCOCC2)s1` [Example 103, 2-[(E)-2-(3-Butyl-5-methyl-isoxazol-4-yl)-vinyl]-4-methyl-thiazole-5-carboxylic acid morpholin-4-ylamide] was tested, and the pKi was 8.74.
